Assay results taken from paper PMC12298624, “Anti-Infective Properties, Cytotoxicity, and In Silico ADME Parameters of Novel 4′-(Piperazin-1-yl)benzanilides” (Pharmaceuticals, 2025).
Read-outs that look alike come from different tables or passages of the source.

Tests used:
HepG2 cells = test: Resazurin-based in vitro cytotoxicity with HepG2 cells; format: cell-based, human
Procedure, shortened: (§1)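 HepG2 cells, 5000 per well in DMEM with 1% FBS, exposed 48 h at 37° C to ten 3-fold dilutions (100.0–0.005 µM). Then 50 µM resazurin for 3 h, fluorescence read at 555/570 nm, IC50 calculated; doxorubicin as control.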

L-6 cells = test: Resazurin-based in vitro cytotoxicity with L-6 cells; format: cell-based, rat
Procedure, shortened: (§2)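 Compounds tested in eleven 3-fold serial dilutions from 100 to 0.002 µg/mL over 70 h incubation. IC50 obtained by linear regression from sigmoidal dose–inhibition curves.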

P. falciparum NF54 [1] = test: In vitro microplate assay against P. falciparum NF54 (3H-hypoxanthine incorporation); format: cell-based, Plasmodium falciparum; conditions: read-out: P.f.NF54 IC50
Procedure, shortened: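 Parasites exposed to eleven 3-fold drug dilutions spanning 100 to 0.002 µg/mL for 48 h, then ^3H-hypoxanthine (0.5 µCi/well) added for a further 24 h. Incorporated radioactivity counted by liquid scintillation after harvesting onto glass fiber filters. IC50 from sigmoidal inhibition curves by linear regression.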

[2] = Resazurin-based in vitro cytotoxicity with HepG2 cells; format: cell-based, human; conditions: HepG2 cells; human hepatocarcinoma cells, 48 h
Procedure, shortened: as §1

B. subtilis 168a = test: MIC/MBC microbroth dilution (EUCAST); format: cell-based, Bacillus subtilis; conditions: Bacillus subtilis, 168A; for MIC: read-out: MIC
Description: (§3) Minimum inhibitory concentrations (MIC values) were obtained using the microbroth dilution method as stated in the EUCAST guidelines. Tests were conducted on cation adjusted Mueller–Hinton broth (caMHB) or agar (caMHA). These were prepared and stored following the manufacturer’s guidelines. Biological organisms were prepared via growth on either Luria–Bertani (LB) or cation adjusted Mueller–Hinton agar plates. These were grown for 24 h at 37 °C, except for Micrococcus luteus where MICs took longer to grow and as a consequence were read after 48 h once a clear positive control could be observed. For the MIC experiment, the bacteria were prepared using the McFarland 0.5 standard and diluted 1 in 100 or 1 in 10 in caMHB following EUCAST and CSLI guidelines for the preparation of bacteria. Testing of the compounds using the microbroth dilution method took place in 96-well plates. Serial 2-fold dilutions of compounds in caMHB covering a range from 256 µg/mL to 0.25 µg/mL were prepared. Bacteria preparations (McFarland) were added to the compound dilutions, further halving the compound concentrations. The plate was then incubated for 18 h at 37 °C. Controls for the MIC experiments included a bacterial growth (positive) control of bacteria and caMHB only and a media only (negative) control. After incubation, the plates were read, whereby the positive control of bacteria was visible and the negative control was clear of contamination. The last clear well, where there is no growth of bacteria, was counted as the MIC value. […] The lowest concentration without any bacterial growth was counted as the MBC value. The following pathogens were used: Pseudomonas aeruginosa NCTC 13437, Escherichia coli NCTC 13353, Bacillus subtilis 168a, Serratia marcescens NCTC 9940, Micrococcus luteus ATCC 10240, Staphylococcus aureus JE2 USA 300, Acinetobacter baumannii ATCC 19606, and Klebsiella pneumoniae ATCC 700603. A concentration range of 256 µg/mL to 0.25 µg/mL of a combination of ciprofloxacin and meropenem against E. coli 25922 was used as an antibiotic control to ensure correct dilution and performance of the assay.

[3] = Resazurin-based in vitro cytotoxicity with L-6 cells; format: cell-based, rat; conditions: rat
Procedure, shortened: as §2

M. luteus ATCC 10240 = test: MIC/MBC microbroth dilution (EUCAST); format: cell-based, Micrococcus luteus; conditions: for MBC: read-out: MBC
Description: as §3

E. coli NCTC 13353 = test: MIC/MBC microbroth dilution (EUCAST); format: cell-based, Escherichia coli; conditions: Escherichia coli; for MBC: NCTC13353; for MIC: NCTC13353, read-out: MIC
Description: as §3

P. aeruginosa NCTC 13437 = test: MIC/MBC microbroth dilution (EUCAST); format: cell-based; conditions: Pseudomonas aeruginosa, NCTC13437
Description: as §3

S. aureus JE2 USA 300 = test: MIC/MBC microbroth dilution (EUCAST); format: cell-based; conditions: Staphylococcus aureus, USA300, S. aureus JE2 USA 300
Description: as §3

[4] = test system: K. pneumoniae ATCC 700603; test: MIC/MBC microbroth dilution (EUCAST); format: cell-based; conditions: Klebsiella pneumoniae, ATCC700603
Description: as §3

S. marcescens NCTC 9940 = test: MIC/MBC microbroth dilution (EUCAST); format: cell-based; conditions: Serratia marcescens, NCTC9940
Description: as §3

A. baumannii ATCC 19606 = test: MIC/MBC microbroth dilution (EUCAST); format: cell-based, Acinetobacter baumannii; conditions: Acinetobacter baumannii; for MBC: ATCC19606; for MIC: ATCC19606, read-out: MIC
Description: as §3

[5] = Parallel artificial membrane permeability assay (PAMPA); conditions: PAMPA, PBS pH 7.4, 200 µM, 5 h, room temperature; for Papp at 5 h, 200 µM: pH 7.4, Pe
Procedure, shortened: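 Passive permeability was measured across a lipid–oil–lipid triple-layer membrane with 200 µM final compound in PBS pH 7.4 in the donor, PBS in the acceptor, 5 h at room temperature, quadruplicates. Donor and acceptor concentrations were read by UV absorbance (200–300 nm); data accepted only when recovery exceeded 70%.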

P. falciparum NF54 [6] = test system: P. falciparum NF54; set-up: method as in PMID 34832891, PMID 36558954; conditions: Figure 1, earlier studies; ref [12],[13]; read-out: PfNF54 IC50; cited from earlier work
[7] = Plasmodium falciparum, NF54, chloroquine-sensitive strain NF54, erythrocytic stages
[8] = Micrococcus luteus, ATCC10240, M. luteus ATCC 10240
[9] = Micrococcus luteus, ATCC10240, M. luteus ATCC 10240, read-out: MIC

Molecule	IC50 at 48 h [2] [µM]	MBC (B. subtilis 168a) [mg/L]	MIC (B. subtilis 168a) [mg/L]	IC50 at 70 h [3] [µM]	IC50 (P. falciparum NF54 [1]; [7]) [µM]	MIC (M. luteus ATCC 10240; [9]) [mg/L]	MBC (E. coli NCTC 13353) [mg/L]	MIC (E. coli NCTC 13353) [mg/L]	MBC (P. aeruginosa NCTC 13437) [mg/L]	MIC (P. aeruginosa NCTC 13437) [mg/L]	MBC (S. aureus JE2 USA 300) [mg/L]	MIC (S. aureus JE2 USA 300) [mg/L]	MBC [4] [mg/L]	MIC [4] [mg/L]	MBC (S. marcescens NCTC 9940) [mg/L]	MIC (S. marcescens NCTC 9940) [mg/L]	MBC (A. baumannii ATCC 19606) [mg/L]	MIC (A. baumannii ATCC 19606) [mg/L]	Papp at 5 h, 200 µM [5] [nm/s]	IC50 (P. falciparum NF54 [6]) [µM]	further results
2-(4-Fluorophenoxy)-N-[4-(pyrrolidin-4-yl)phenyl]-3-(trifluoromethyl)benzamide [Compound 34]	–	–	–	–	–	–	–	–	–	–	–	–	–	–	–	–	–	–	–	–	IC50 (HepG2 cells): 39.8 µM; IC50 (L-6 cells): 185 µM; IC50 (P. falciparum NF54 [1]; chloroquine-sensitive strain NF54, erythrocytic stages): 1.68 µM
O=C(Nc1ccc(N2CCNCC2)cc1)c1cccc(C(F)(F)F)c1Oc1ccccc1 [Compound 58, 2-Phenoxy-N-[4-(piperazin-1-yl)phenyl]-3-(trifluoromethyl)benzamide]	5.8	256	128	25.9	3.81	128	> 256	> 256	> 256	> 256	128	128	256	256	> 256	> 256	> 256	256	49.8	–	MBC (M. luteus ATCC 10240; [8]): 128 mg/L
O=C(Nc1ccc(N2CCNCC2)cc1)c1cccc([N+](=O)[O-])c1Oc1ccc(F)cc1 [Compound 61, 2-(4-Fluorophenoxy)-3-nitro-N-[4-(piperazin-1-yl)phenyl]benzamide]	29.8	> 256	256	43.8	4.1	128	> 256	> 256	> 256	> 256	> 256	128	> 256	256	> 256	> 256	> 256	256	83.6	–	MBC (M. luteus ATCC 10240; [8]): 128 mg/L
O=C(Nc1ccc(N2CCNCC2)cc1)c1cccc(C(F)(F)F)c1Sc1ccc(F)cc1 [Compound 62, 2-[(4-Fluorophenyl)sulfanyl]-N-[4-(piperazin-1-yl)phenyl]-3-(trifluoromethyl)benz-amide]	9.3	256	128	13.1	1.66	128	> 256	> 256	> 256	> 256	128	128	256	256	> 256	> 256	> 256	256	65.1	–	MBC (M. luteus ATCC 10240; [8]): 128 mg/L; Pe [5]: 4.41 10^−6 cm/s
O=C(Nc1ccc(N2CCNCC2)cc1)c1ccccc1Oc1ccccc1 [Compound 64, 2-Phenoxy-N-[4-(piperazin-1-yl)phenyl]benzamide]	12.3	256	128	40.6	2.33	16 to 64	> 256	> 256	> 256	> 256	64	32	> 256	256	> 256	> 256	> 256	256	76.7	–	MIC (M. luteus ATCC 10240; M. luteus ATCC 10240): 32 mg/L
Nc1cccc(C(=O)Nc2ccc(N3CCNCC3)cc2)c1Oc1ccc(F)cc1 [Compound 65, 3-Amino-2-(4-fluorophenoxy)-N-[4-(piperazin-1-yl)phenyl]benzamide]	> 100	> 256	> 256	157	7	> 256	> 256	> 256	> 256	> 256	256	256	> 256	> 256	> 256	> 256	> 256	> 256	57.6	–	MBC (M. luteus ATCC 10240; [8]): > 256 mg/L
CC(C)(C)OC(=O)N1CCN(c2ccccc2NC(=O)c2cccc(C(F)(F)F)c2Oc2ccc(F)cc2)CC1 [MMV030666, tert-Butyl-4-{2-[2-(4-fluorophenoxy)-3-(trifluoromethyl)benzamido]phenyl}pipera-zine-1-carboxylate]	–	–	–	–	–	–	–	–	–	–	–	–	–	–	–	–	–	–	–	0.41	–
CC(C)(C)OC(=O)N1CCN(c2ccc(NC(=O)c3cccc(C(F)(F)F)c3Sc3ccc(F)cc3)cc2)CC1 [derivate III]	–	–	–	–	–	–	–	–	–	–	–	–	–	–	–	–	–	–	–	0.15	–
CC(C)(C)C(=O)N1CCN(c2ccc(NC(=O)c3cccc(C(F)(F)F)c3Oc3ccc(F)cc3)cc2)CC1 [derivate II]	–	–	–	–	–	–	–	–	–	–	–	–	–	–	–	–	–	–	–	0.58	–
CC(C)(C)OC(=O)N1CCN(c2ccc(NC(=O)c3cccc(C(F)(F)F)c3Nc3ccc(F)cc3)cc2)CC1 [derivate IV]	–	–	–	–	–	–	–	–	–	–	–	–	–	–	–	–	–	–	–	0.54	–
CC(C)(C)OC(=O)N1CCN(c2ccc(NC(=O)c3cccc(C(F)(F)F)c3Oc3ccc(F)cc3)cc2)CC1 [derivate I]	–	–	–	–	–	–	–	–	–	–	–	–	–	–	–	–	–	–	–	0.27	–
